Data on 79 compounds can be found in the METLIN SMRT retention time set (Domingo-Almenara et al. 2019).

The nature of this data set: gradient 5% acetonitrile 3 min, to 50% in 2 min, to 85% in 15 min, held 3 min, 100 µL/min. Particulars: column: Zorbax Extend-C18 2.1 x 50 mm; eluents: water / acetonitrile, 0.1% formic acid. The essentials:
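Each retention time is based on an adduct peak selected computationally and verified by manual inspection. Measurements used HPLC–quadrupole time-of-flight mass spectrometry in positive and negative ionization mode on mixtures of ~100 pure standards. Chromatography ran on a Zorbax Extend-C18 column (2.1 × 50 mm, 1.8 μm) at 100 μL/min with water and acetonitrile, each containing 0.1% formic acid, and dead and dwell volumes of 40 μL and 900 μL.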
`CC(C)Cn1cc(S(=O)(=O)N2CCc3ccccc3C2)c2cccnc21` registered an RP-LC retention time of 784 s.

As to `C=CCn1c(=O)c2ccccc2n(Cc2nc(-c3ccccc3C)no2)c1=O`, the RP-LC retention time turned out to be 1080 s.

As for `Cc1ccc(S(=O)(=O)N2CCC(c3noc(-c4cccc(F)c4)n3)CC2)cc1`, the RP-LC retention time was found to be 1160 s.

The compound `Cc1cccc(CSc2nnc(CNC(=O)c3ccc(S(=O)(=O)N(C)C)cc3)o2)c1` had an RP-LC retention time of 803 s.

As to `CCCNC(=O)C1CCCN(c2ccc(SCC(=O)Nc3ccc(C)c(C)c3)nn2)C1` (centres undefined), the RP-LC retention time came out at 678 s.

For the compound `Cc1cc(C)c(Nc2ccnc(Nc3ccc(C#N)cc3)n2)c(C)c1`, the RP-LC retention time amounted to 798 s.

Take `CCCCn1cc(S(=O)(=O)Nc2ccc(F)cc2)c2cccnc21`: the RP-LC retention time was 936 s.

In turn, `CC(CNC(=O)CC1CCN(S(=O)(=O)c2ccccc2)CC1)c1ccccc1` (centres undefined) came in with an RP-LC retention time of 866 s.

Turning to `Cc1cc(C)cc(NC(=O)c2cn3c(n2)CCCC3)c1`, the RP-LC retention time turned out to be 644 s.

On to `CNC(=O)c1csc(N2CCCC2)n1`, for which the RP-LC retention time was 671 s.

`CC(C)OCCCNC(=O)c1nnc(-c2ccc(S(=O)(=O)N3CCOCC3)cc2)o1` returned an RP-LC retention time of 784 s.

In turn, `O=C(NCc1ccccc1)c1ccc(NC(=O)C2CCC2)cc1N1CCOCC1` returned an RP-LC retention time of 842 s.

The compound `CC(C)NC(=O)C1CCN(C(=O)c2ncn3c2COC(c2ccccc2)C3)CC1` (centres undefined) had an RP-LC retention time of 686 s.

On to `O=C(Cn1nc2c3cc(-c4ccccc4)nn3ccn2c1=O)Nc1ccc(Br)cc1`, for which the RP-LC retention time amounted to 947 s.

In the case of `Cc1nnc(-c2ccc3ccn(CC(=O)N4CCCCC4)c3c2)o1`, the RP-LC retention time is 748 s.

`COc1ccc(S(=O)(=O)Cc2nc(-c3ccc(C)cc3)no2)cc1OC` showed an RP-LC retention time of 960 s.

`CCCn1cc(C2=CCN(C(=O)NC3CCCCC3)CC2)c2cccnc21`: the RP-LC retention time was 943 s.

The compound `Cc1ccc(-c2nnc(N3CCC(C(=O)NCCN4CCCCCC4)CC3)o2)cc1` gave an RP-LC retention time of 632 s.

`COc1ccccc1NC(=O)Cc1nnc(-c2ccc3ncccc3c2)o1` gave an RP-LC retention time of 724 s.

As to `Cc1ccc(-c2ncc(C(=O)Nc3ccc(Br)cc3)c(-c3ccncc3)n2)cc1`, the RP-LC retention time was found to be 994 s.

`N#CC1=C(SCC(=O)Nc2nccs2)NC(=O)CC1c1ccccc1F` (centres undefined): the RP-LC retention time amounted to 696 s.

Take `COc1cccc(S(=O)(=O)N2CCCC(Cn3c(C)nc4cccnc43)C2)c1` (centres undefined): the RP-LC retention time turned out to be 693 s.

In the case of `CCn1c(C(=O)NCc2ccc(C)cc2)cc2sc(Cl)cc21`, the RP-LC retention time turned out to be 1200 s.

Regarding `CCOc1ccc(NC(=O)Cn2c(=O)n(-c3ccc(C)cc3)c(=O)c3c2cc(C)n3C)cc1`, the RP-LC retention time came out at 824 s.

`Cc1ccc(C)c(C(=O)N2CCc3nc(-c4ccc(F)cc4)ncc3C2)c1`: the RP-LC retention time was 1060 s.

`CCOc1ccc(C2c3[nH]c4ccccc4c3CCN2C(=O)Cc2cccs2)cc1` (centres undefined) displayed an RP-LC retention time of 1190 s.

With `CCOc1ccccc1CNC(=O)C1CCN(Cc2cn(CC)c3ccc(OC)cc23)CC1`, the RP-LC retention time came to 759 s.

`O=C(NCC(c1ccco1)N1CCN(c2ccc(F)cc2)CC1)c1ccsc1` (centres undefined): the RP-LC retention time came out at 603 s.

Compound `CSc1ccc(NC(=O)N2CCC(c3nc(C(=O)N4CCOCC4)c(C)o3)CC2)cc1` yielded an RP-LC retention time of 726 s.

Take `CC(=O)N(C1CCOCC1)C1CCN(S(=O)(=O)c2cc(F)ccc2C)CC1`: the RP-LC retention time is 792 s.

`CCCCc1ccc(NC(=O)NC2CCN(c3cc(N4CCCC4)cnn3)C2)cc1` (centres undefined): the RP-LC retention time is 814 s.

The compound `COc1cccc(N2CCN(c3ccnc(SCC(=O)NCCC4=CCCCC4)n3)CC2)c1` registered an RP-LC retention time of 862 s.

Turning to `CC(=O)Nc1ccc(CCc2nc3ccc(C(=O)NC(C)C)cc3[nH]2)cc1`, the RP-LC retention time was 574 s.

`Cc1ccccc1S(=O)(=O)Nc1ccc(C2(C(=O)NCC3CCCO3)CC2)cc1` (centres undefined) had an RP-LC retention time of 797 s.

The compound `CC1(C)C(=O)Nc2ccc(S(=O)(=O)N3CCC(c4noc(-c5ccncc5)n4)C3)cc21` (centres undefined) came in with an RP-LC retention time of 700 s.

`Cc1ccc(S(=O)(=O)N2CCc3nc(-c4ccc(F)cc4)ncc3C2)c(C)c1` showed an RP-LC retention time of 1220 s.

The compound `COc1ccc(-c2ccnc3nc(-c4cccs4)nn23)cc1OC` showed an RP-LC retention time of 832 s.

Regarding `CC(C)N1CCN(S(=O)(=O)c2cc(-c3nnc(C4CCC4)o3)co2)CC1`, the RP-LC retention time stood at 622 s.

Regarding `CC(=O)N1c2ccc(S(=O)(=O)N3CCCC3C(=O)NCc3ccc4c(c3)OCO4)cc2CC1C` (centres undefined), the RP-LC retention time stood at 779 s.

In turn, `Cc1cc(C2CCCN2C(=O)Nc2ccccc2C(F)(F)F)no1` (centres undefined) showed an RP-LC retention time of 895 s.

`Cc1cccc(NC(=O)C2CCCCN2S(=O)(=O)c2cccs2)n1` (centres undefined) showed an RP-LC retention time of 807 s.

Take `Cc1cccc(N2CCN(S(=O)(=O)c3cc(-c4cc(C(F)(F)F)[nH]n4)sc3C)CC2)c1C`: the RP-LC retention time is 1290 s.

Turning to `Cc1c(C(=O)NC(C)C)cnn1-c1ccc(-c2nc(C(C)(C)C)no2)cn1`, the RP-LC retention time turned out to be 1020 s.

On to `COc1ccc(NC(=O)N2CCN(Cc3nc4cc(-c5ccccc5)ccc4o3)CC2)cc1`, for which the RP-LC retention time was 823 s.

Turning to `CCc1nc(-n2cccc2)sc1C(=O)Nc1cccc(C)c1`, the RP-LC retention time is 1150 s.

Consider `CC(C)Cn1cc(S(=O)(=O)N2CCN(c3ccccc3Cl)CC2)c2cccnc21`, for which the RP-LC retention time came out at 1220 s.

Compound `CCCN(CCC)Cc1ccc(CNC(=O)C2CCCN(c3nnc(N4CCCC4=O)s3)C2)o1` (centres undefined) yielded an RP-LC retention time of 614 s.

For `COc1ccc(OCC(=O)N2CCN(c3nc(CN4CCOCC4)cs3)CC2)cc1`, the RP-LC retention time was 611 s.

The compound `CCOC(=O)C1CCN(c2cc(C)nc3nc(-c4ccc(OC)cc4)nn23)CC1` returned an RP-LC retention time of 881 s.

For the compound `COc1ccc(N2CC(c3noc(-c4ccc(C)cc4C)n3)CC2=O)cc1` (centres undefined), the RP-LC retention time came out at 1000 s.

In the case of `Cc1cc(C)cc(NC(=O)CN2CCN(Cc3ccc(F)cc3)C(=O)C2=O)c1`, the RP-LC retention time was found to be 798 s.

Compound `CSc1ccc(CNS(=O)(=O)c2cc3c(s2)CCN(C(=O)C2CC2)C3)cc1` showed an RP-LC retention time of 872 s.

Turning to `CCn1cnc(S(=O)(=O)N2CCC(C(=O)NC3CCCCC3)CC2)c1`, the RP-LC retention time is 686 s.

`CCCCOC(=O)C1=CN(C)S(=O)(=O)N=C1C` returned an RP-LC retention time of 875 s.

Take `Cc1ccc(N2C(=O)C3N=NN(c4ccc(C)c(Cl)c4)C3C2=O)cc1F` (centres undefined): the RP-LC retention time was found to be 836 s.

The compound `COCc1cc2nn(CC(=O)Nc3ccc(C)cc3)c(=O)n2c(-c2ccccc2)n1` showed an RP-LC retention time of 838 s.

Regarding `Cc1ccccc1C(=O)N1C[C@@H](F)C[C@H]1C(=O)N1CCOCC1`, the RP-LC retention time turned out to be 620 s.

Take `O=C(Cn1c(-c2cccs2)cc2ccccc21)N1CCN(C(=O)c2ccco2)CC1`: the RP-LC retention time came out at 908 s.

On to `CCSCCOC(=O)C1=C(C)NC2=C(C(=O)C(C(=O)OC)C(C)C2)C1c1ccccc1OC` (centres undefined), for which the RP-LC retention time turned out to be 967 s.

Compound `Cc1csc(-c2cc(S(=O)(=O)N3CCCCC3)cn2CC(=O)N2CCCC2)n1` registered an RP-LC retention time of 890 s.

Compound `COC(=O)c1c(C)[nH]c(C(=O)N2CCCC(C(=O)NCc3ccc(OC)cc3OC)C2)c1C` (centres undefined) showed an RP-LC retention time of 755 s.

As to `Cc1nc2cc(N3CC(C(=O)Nc4ccc(C)c(Cl)c4)CC3=O)ccc2o1` (centres undefined), the RP-LC retention time was found to be 819 s.

Take `O=C(NCc1ccccc1)N1CC(Oc2ccc(-c3nc(-c4ccccc4)no3)cc2)C1`: the RP-LC retention time is 1130 s.

Turning to `COc1ccccc1CCC(=O)NCc1cccnc1OC`, the RP-LC retention time stood at 749 s.

`COc1ccc(C)cc1NC(=O)NCC(c1cccnc1)c1cn(C)c2ccccc12` (centres undefined): the RP-LC retention time is 734 s.

The compound `CCCCNC(=O)C1CCN(c2cnn(Cc3ccccc3)c(=O)c2)CC1` returned an RP-LC retention time of 752 s.

On to `O=C(c1ccsc1)N1CCN(c2nc(CN3CCCCC3)cs2)CC1`, for which the RP-LC retention time worked out at 597 s.

With `CCCCS(=O)(=O)N1CC[C@H](CN(C)C(C)=O)[C@H](N(C)C)C1`, the RP-LC retention time was found to be 584 s.

`CN1CCN(C(CNC(=O)Cc2ccc(Cl)cc2)c2ccc3c(c2)OCO3)CC1` (centres undefined) displayed an RP-LC retention time of 587 s.

In turn, `Cc1c(C(=O)N2CCCCCC2)sc2ncn(CC(=O)N3CC(C)CC(C)C3)c(=O)c12` (centres undefined) showed an RP-LC retention time of 891 s.

Turning to `CCN1CCN(C(=O)C2CCCN(c3nccc(C)n3)C2)CC1` (centres undefined), the RP-LC retention time turned out to be 559 s.

Compound `COc1ccc(-c2nc3cnccn3c2Nc2ccc(Cl)cc2)cc1` gave an RP-LC retention time of 896 s.

Regarding `Cc1ccc2c(C(=O)N3CCCCC3)cc(NC(=O)C3CCC3)cc2n1`, the RP-LC retention time came to 632 s.

The compound `CCc1noc(NC(C)=O)c1-c1ccc(OC)c(S(=O)(=O)N2CCCC2)c1` gave an RP-LC retention time of 710 s.

With `O=C(NCc1ccc(Cl)cc1)C1CCN(C(=O)c2ncn3c2COC(c2ccccc2)C3)CC1` (centres undefined), the RP-LC retention time was found to be 802 s.

In turn, `CCOC(=O)N1CCN(Cc2nc(-c3ccc(N4CCCCC4)nc3)no2)CC1` displayed an RP-LC retention time of 757 s.

In turn, `Cc1cccc(NC(=O)CN2C(=O)CCCc3cc(S(=O)(=O)N4CCCCC4)ccc32)c1` registered an RP-LC retention time of 958 s.

Regarding `CC1CCN(C(=O)C2CC(=O)N(c3ccccc3)C2)CC1` (centres undefined), the RP-LC retention time came out at 764 s.

In the case of `COC[C@@H]1CN(C(=O)c2ccoc2C)C[C@H]1c1nc(C2CC2)no1`, the RP-LC retention time was 574 s.
